# Reference: patent publication US10508104B2, “6-hydroxy-5-(phenyl/heteroarylsulfonyl)pyrimidin-4(1H)-one as APJ agonists” (Bristol-Myers Squibb Company, priority 2016, dated 2019)
# Target: human APJ receptor (Homo sapiens (Human), UniProt P35414)
# Test: Intracellular cAMP accumulation assay (APJ hcAMP, HTRF)
# Assay type: cell-based
# Details: HEK293 cells stably expressing human APJ receptor; inhibition of forskolin-mediated cAMP production; read-out: Human APJ cAMP EC50 Potency range
# Summary of the method: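 HEK293 cells stably expressing human APJ, 5,000 per well, incubated 30 min at rt with compound, […] and 2 μM forskolin. cAMP measured by HTRF against a cAMP standard curve as inhibition of forskolin-driven production. EC50 from variable-slope sigmoidal fit.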
# human APJ receptor, sequence (P35414 whole entry): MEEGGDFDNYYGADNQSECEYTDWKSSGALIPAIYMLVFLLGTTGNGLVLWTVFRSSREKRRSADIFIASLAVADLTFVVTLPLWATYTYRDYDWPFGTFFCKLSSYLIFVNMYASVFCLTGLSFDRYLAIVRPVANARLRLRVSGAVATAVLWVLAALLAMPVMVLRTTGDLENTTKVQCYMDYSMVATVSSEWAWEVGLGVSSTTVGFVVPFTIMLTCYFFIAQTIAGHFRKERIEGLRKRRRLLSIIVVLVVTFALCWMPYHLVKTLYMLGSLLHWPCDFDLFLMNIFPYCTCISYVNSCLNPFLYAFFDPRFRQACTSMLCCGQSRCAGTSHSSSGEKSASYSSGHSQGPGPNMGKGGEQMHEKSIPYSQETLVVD
row,Compound,EC50
1,"CCCCc1nc(=O)c(S(=O)(=O)c2ccc(-c3cccc4c3C(=O)NC4)cc2)c(O)n1[C@@H](CC)c1cccc(C#N)c1 [Example 529, 3-[(1S)-1-{2-butyl-6-hydroxy-4-oxo-5-[4-(3-oxo-2,3-dihydro-1H-isoindol-4-yl)benzenesulfonyl]-1,4-dihydropyrimidin-1-yl}propyl]benzonitrile]",0.01 to 10 nM
2,"CCCCc1nc(=O)c(S(=O)(=O)C2CCN(C)CC2)c(O)n1-c1c(OC)cccc1OC [Example 107, 2-Butyl-1-(2,6-dimethoxyphenyl)-6-hydroxy-5-((1-methylpiperidin-4-yl)sulfonyl)pyrimidin-4(1H)-one]",0.01 to 10 nM
3,"CCCCc1nc(=O)c(S(=O)(=O)c2ccc(-c3ccncc3C)cc2)c(O)n1[C@H](c1cccc(C#N)c1)C1CC1 [Example 487, 3-[(S)-{2-butyl-6-hydroxy-5-[4-(3-methylpyridin-4-yl)benzenesulfonyl]-4-oxo-1,4-dihydropyrimidin-1-yl}(cyclopropyl)methyl] benzonitrile]",0.01 to 10 nM
4,"COC[C@@H](c1cccc(C#N)c1)n1c(COC(C)C)nc(=O)c(S(=O)(=O)c2ccc(-c3ccccc3C(N)=O)cc2)c1O [Example 399, 4′-({1-[(1R)-1-(3-cyanophenyl)-2-methoxyethyl]-6-hydroxy-4-oxo-2-[(propan-2-yloxy)methyl]-1,4-dihydropyrimidin-5-yl}sulfonyl)-[1,1′-biphenyl]-2-carboxamide]",0.01 to 10 nM
5,"CCCCc1nc(=O)c(S(=O)(=O)c2ccc(-c3cccn(C)c3=O)cn2)c(O)n1[C@@H](CC)c1cccc(C#N)c1 [Example 485, 3-[(1S)-1-[2-butyl-6-hydroxy-5-({1′-methyl-2′-oxo-1′,2′-dihydro-[3,3′-bipyridine]-6-yl}sulfonyl)-4-oxo-1,4-dihydropyrimidin-1-yl]propyl]benzonitrile]",0.01 to 10 nM
6,"CC[C@@H](c1cccc(C#N)c1)n1c(CC2CC2)nc(=O)c(S(=O)(=O)c2ccc(-c3cccnc3C)cc2)c1O [Example 443, 3-[(1S)-1-[2-(cyclopropylmethyl)-6-hydroxy-5-[4-(2-methylpyridin-3-yl)benzenesulfonyl]-4-oxo-1,4-dihydropyrimidin-1-yl]propyl]benzonitrile]",0.01 to 10 nM
7,"COC[C@@H](c1cccc(C#N)c1)n1c(COC(C)C)nc(=O)c(S(=O)(=O)c2ccc(-c3cn(C)nc3C)cc2)c1O [Example 393, 3-[(1R)-1-{5-[4-(1,3-dimethyl-1H-pyrazol-4-yl)benzenesulfonyl]-6-hydroxy-4-oxo-2-[(propan-2-yloxy)methyl]-1,4-dihydropyrimidin-1-yl}-2-methoxyethyl]benzonitrile]",0.01 to 10 nM
8,"CCCCc1nc(=O)c(S(=O)(=O)c2ccc(-c3ccccc3C(N)=O)cc2)c(O)n1[C@@H](CC)c1cccc(C#N)c1 [Example 465, 4′-({2-butyl-1-[(1S)-1-(3-cyanophenyl)propyl]-6-hydroxy-4-oxo-1,4-dihydropyrimidin-5-yl}sulfonyl)-[1,1′-biphenyl]-2-carboxamide]",0.01 to 10 nM
9,"CCOCc1nc(=O)c(S(=O)(=O)c2ccc(-c3ccnc(F)c3C)cc2)c(O)n1[C@@H](CC)c1cccc(C#N)c1 [Example 437, 3-[(1S)-1-[2-(ethoxymethyl)-5-[4-(2-fluoro-3-methylpyridin-4-yl)benzenesulfonyl]-6-hydroxy-4-oxo-1,4-dihydropyrimidin-1-yl]propyl]benzonitrile]",0.01 to 10 nM
10,"CC[C@@H](c1ccccc1)n1c(COC(C)C)nc(=O)c(S(=O)(=O)c2ccc(-c3ccccc3C(=O)NC)cc2)c1O [Example 422, 4′-({6-hydroxy-4-oxo-1-[(1S)-1-phenylpropyl]-2-[(propan-2-yloxy)methyl]-1,4-dihydropyrimidin-5-yl}sulfonyl)-N-methy1-[1,1′-biphenyl]-2-carboxamide]",0.01 to 10 nM
11,"CCCCc1nc(=O)c(S(=O)(=O)c2ccc(-c3ccc(F)nc3C)cc2)c(O)n1[C@@H](CC)c1cc(F)cc(F)c1 [Example 433, 2-butyl-1-[(1S)-1-(3,5-difluorophenyl)propyl]-5-[4-(6-fluoro-2-methylpyridin-3-yl)benzenesulfonyl]-6-hydroxy-1,4-dihydropyrimidin-4-one]",0.01 to 10 nM
12,"CCCCc1nc(=O)c(S(=O)(=O)[C@H]2CC[C@H](O)CC2)c(O)n1-c1c(OC)cccc1OC [Example 556, 2-butyl-1-(2,6-dimethoxyphenyl)-6-hydroxy-5-{[(1r,4r)-4-hydroxycyclohexyl]sulfonyl}-1,4-dihydropyrimidin-4-one]",0.01 to 10 nM

# Same assay, conditions: human APJ, cAMP accumulation; read-out: Human APJ cAMP EC50 Potency range
row,Compound,EC50
1,"CCOCc1nc(=O)c(S(=O)(=O)c2ccc(-c3ccnc(F)c3C)c(F)c2)c(O)n1[C@@H](COC)c1ccccc1 [Example 338, 2-(ethoxymethyl)-5-[3-fluoro-4-(2-fluoro-3-methylpyridin-4-yl)benzenesulfonyl]-6-hydroxy-1-[(1R)-2-methoxy-1-phenylethyl]-1,4-dihydropyrimidin-4-one]",0.01 to 10 nM
2,"CCOCc1nc(=O)c(S(=O)(=O)c2ccc(-c3ccnc(F)c3C)c(F)c2)c(O)n1C(COC)c1cccc(F)c1 (stereo not drawn) [Example 346, 2-(ethoxymethyl)-5-[3-fluoro-4-(2-fluoro-3-methylpyridin-4-yl)benzenesulfonyl]-1-[1-(3-fluorophenyl)-2-methoxyethyl]-6-hydroxy-1,4-dihydropyrimidin-4-one]",0.01 to 10 nM
3,"CCCCc1nc(O)c(S(=O)(=O)c2ccc(Br)cc2)c(=O)n1[C@@H](C)c1ccc(OC)cc1 [Example 246, 5-(4-bromobenzenesulfonyl)-2-butyl-6-hydroxy-3-[(1S)-1-(4-methoxyphenyl)ethyl]-3,4-dihydropyrimidin-4-one]",0.01 to 10 nM
4,"COC[C@@H](c1ccccc1)n1c(C2CCCO2)nc(=O)c(S(=O)(=O)c2ccc(-c3ccc(F)nc3C)cc2)c1O (single isomer, unassigned) [Example 356]",0.01 to 10 nM
5,"CCCCc1nc(=O)c(S(=O)(=O)c2ccc(-c3cccnc3C)cc2)c(O)n1[C@@H](CC)c1cccc(C#N)c1 [Example 234, 3-[(1S)-1-{2-butyl-6-hydroxy-5-[4-(2-methylpyridin-3-yl)benzenesulfonyl]-4-oxo-1,4-dihydropyrimidin-1-yl}propyl]benzonitrile]",0.01 to 10 nM

# Same assay, conditions: human APJ, intracellular cAMP accumulation; read-out: Human APJ cAMP EC50 Potency range
row,Compound,EC50
1,"CCCCc1nc(=O)c(S(=O)(=O)c2ccc(-c3cc(F)ccc3F)cc2)c(O)n1-c1c(OC)cccc1OC [Example 35, 2-butyl-5-[4-(2,5-difluorophenyl)benzenesulfonyl]-1-(2,6-dimethoxyphenyl)-6-hydroxy-1,4-dihydropyrimidin-4-one]",0.01 to 10 nM
2,"CCCc1nc(=O)c(S(=O)(=O)c2ccc(-c3ccc(F)nc3)cc2)c(O)n1[C@@H](COC)c1ccccc1 [Example 174, 5-[4-(6-fluoropyridin-3-yl)benzenesulfonyl]-6-hydroxy-1-[(1R)-2-methoxy-1-phenylethyl]-2-propyl-1,4-dihydropyrimidin-4-one]",0.01 to 10 nM
3,"CCCCc1nc(=O)c(S(=O)(=O)c2ccc(-c3ccc(F)nc3C)cc2)c(O)n1[C@@H](CC)c1cccc(Cl)c1 [Example 198, 2-butyl-1-[(1S)-1-(3-chlorophenyl)propyl]-5-[4-(6-fluoro-2-methylpyridin-3-yl)benzenesulfonyl]-6-hydroxy-1,4-dihydropyrimidin-4-one]",0.01 to 10 nM
4,"CCCCc1nc(=O)c(S(=O)(=O)c2cc(C)oc2C)c(O)n1-c1c(OC)cccc1OC [Example 100, 2-butyl-1-(2,6-dimethoxyphenyl)-5-[(2,5-dimethylfuran-3-yl)sulfonyl]-6-hydroxy-1,4-dihydropyrimidin-4-one]",0.01 to 10 nM
5,"COc1cccc(OC)c1-n1c(COC(C)C)nc(=O)c(S(=O)(=O)c2ccc(-c3ccccc3)cc2)c1O [Example 33, 1-(2,6-dimethoxyphenyl)-6-hydroxy-5-(4-phenylbenzenesulfonyl)-2-[(propan-2-yloxy)methyl]-1,4-dihydropyrimidin-4-one]",0.01 to 10 nM
6,"CCCCc1nc(=O)c(S(=O)(=O)c2ccc(-c3ccc(OC)nc3C)cc2)c(O)n1[C@@H](COC)c1ccccc1 [Example 147, 2-butyl-6-hydroxy-1-[(1R)-2-methoxy-1-phenylethyl]-5-[4-(6-methoxy-2-methylpyridin-3-yl)benzenesulfonyl]-1,4-dihydropyrimidin-4-one]",0.01 to 10 nM
7,"CCCCc1nc(=O)c(S(=O)(=O)c2ccc(-c3ccnc(NC(=O)C4CC4)c3)cc2)c(O)n1-c1c(CC)cccc1CC [Example 65, N-[4-(4-{[2-butyl-1-(2,6-diethylphenyl)-6-hydroxy-4-oxo-1,4-dihydropyrimidin-5-yl]sulfonyl}phenyl)pyri-din-2-yl]cyclopropane-carboxamide]",0.01 to 10 nM
8,"COc1cccc(OC)c1-n1c(CCC(C)C)nc(=O)c(S(=O)(=O)c2cccc(-c3ccc(F)cc3)c2)c1O [Example 18, 1-(2,6-dimethoxyphenyl)-5-[3-(4-fluorophenyl)benzene-sulfonyl]-6-hydroxy-2-(3-methylbutyl)-1,4-dihydropyrimidin-4-one]",0.01 to 10 nM
9,"COc1cccc(OC)c1-n1c(C2CCCC2)nc(=O)c(S(=O)(=O)c2ccc(-c3ccnc(NC(=O)C4CC4)c3)cc2)c1O [Example 64, N-[4-(4-{[2-cyclopentyl-1-(2,6-dimethoxyphenyl)-6-hydroxy-4-oxo-1,4-dihydropyrimidin-5-yl]sulfonyl}phenyl)pyri-din-2-yl]cyclopropane-carboxamide]",0.01 to 10 nM
10,"CCCc1nc(=O)c(S(=O)(=O)c2ccc(-c3ccnc(F)c3C)cc2)c(O)n1[C@@H](COC)c1ccccc1 [Example 176, 5-[4-(2-fluoro-3-methylpyridin-4-yl)benzenesulfonyl]-6-hydroxy-1-[(1R)-2-methoxy-1-phenylethyl]-2-propyl-1,4-dihydropyrimidin-4-one]",0.01 to 10 nM
